Data taken from patent US20090124631A1, “Combination Therapy” (priority 2007, published 2009).

Key:
[1] = system: bFGF expression in A549 (NSCLC) xenografts; test: bFGF expression in A549 xenografts; assay type: in vivo; conditions: 150 mg/kg, p.o., qdx3
[2] = system: tubulin acetylation in human bladder carcinoma T24 cells; test: Cell-based ELISA for tubulin acetylation
Description: (§1) Bladder carcinoma T24 cells were seeded in black plates with clear bottoms (Costar #3603) at 1×10^4 cells per well in a volume of 100 μl per well, and were allowed to settle for one day at 37° C. in a CO2 incubator. The cells were treated for 16 h with various concentrations of HDAC inhibitors. 3 h before the end of the treatment, Alamar Blue (BioSource) was added to monitor cell viability according to the manufacturer's instructions. At the end of the treatment time, Alamar Blue OD (at 570 nm and 600 nm) was recorded, then the cells were carefully washed in PBS, fixed in pre-chilled methanol for 10 min at −20° C., washed again twice in PBS, and blocked in PBS containing 0.1% Triton X-100 and 1% BSA for a minimum of 30 min. For H3 acetylation, rabbit-anti-acetyl-H3 (Upstate #06-599) was used as primary antibody at a dilution of 1:1000 for 45 min; the secondary antibody was HRP-coupled goat-anti-rabbit (Sigma #A-0545), used at 1:8000 for 45 min. For tubulin acetylation, the primary antibody was mouse anti-acetyl-tubulin (Sigma #T-6793, 1:2000, 45 min) while the secondary was HRP-coupled goat-anti-mouse antibody (Sigma #A-2304, 1:8000, 45 min). All antibodies were diluted in blocking buffer, and the cells were washed in blocking buffer following each antibody incubation. […] The fluorescent signal for acetylation was normalized by dividing with the viability data obtained from Alamar Blue. EC50 was defined as the concentration of compound which gave a signal half-way between the basal (untreated) level and the maximum level generated by high doses of the HDAC pan-inhibitor NVP-LAQ-824.

[3] = system: histone H3 acetylation in human bladder carcinoma T24 cells; test: Cell-based ELISA for H3 acetylation
Description: as §1

Nc1ccccc1NC(=O)c1ccc(CNc2nccc(-c3cccnc3)n2)cc1 [Compound A]
bFGF expression [1]: suppression | tubulin acetylation [2]: but not tubulin acetylation | histone H3 acetylation [3]: dose-dependent induction
